# Laboratory results reported in patent US20090181910A1, “METHOD OF PREVENTION AND ALLEVIATION OF TOXICITY BY MODULATION OF IRF3” (priority 2006, published 2009).
# Experiments:
# RXRα = experiment: Liver RNA Q-PCR, polyI:C/APAP-treated mice: RXRα; assay type: in vivo; details: single polyI:C 100 μg i.v. 24 h before APAP 350 mg/kg i.p.; wildtype vs IRF3−/− mice; FIG. 1A
# Description: FIG. 1: PolyI:C repression of RXRα and cytochrome P450 family members involves IRF3. Wildtype or IRF3−/− mice (n=4) fasted and were treated with 0.1% NaCl or polyI:C (100 μg) intravenous (i.v.) 24 hours prior to treatment with APAP (350 mg/kg) by intraperitoneal (i.p.) injection. 6 hours post-APAP treatment liver samples were isolated. Liver RNA analyzed by Q-PCR for (A) RXRα (B) Cyp1A2 and (C) Cyp3A11.
# Age and sex matched 6-9 week old mice were used for all experiments. C57/B16 mice were obtained from Jackson Laboratory. IRF3^−/− mice were obtained from Dr. T. Taniguchi. For APAP hepatotoxicity analysis, mice fasted for […] and then administered Vehicle (0.1% NaCl) or APAP (175-600 mg/kg) by intraperitoneal injection (i.p.). For serum and histological studies, mice were sacrificed at 6-7 hours post injection and serum and liver samples were retrieved. For survival studies, mice were studied for up to 5 days. For polyI:C studies, mice were also treated with 0.1% NaCl or polyI:C (100 μg) intravenous (i.v.) 12-24 hours prior to APAP treatment. […] Serum alanine aminotransferase (ALT) levels were determined using manufacturer's protocol (TECO Diagnostics). […]
# For quantitative realtime PCR (Q-PCR), total RNA was isolated and cDNA synthesized according to manufacturer's protocol: Trizol (RNA) and Bio-Rad iScript (cDNA). […]
# CYP24 = test system: CYP24; parameters: species or system mice; details: mouse, in vivo
# ZF5 = experiment: BMM Q-PCR: ZF5 mRNA; assay type: cell-based, Murine; details: polyI:C and LPS; data not shown
# CRBPII = experiment: BMM Q-PCR: CRBPII; assay type: cell-based, Murine; details: LG268 10 nM with polyI:C 1 μg/ml; IRF3^−/− and IFNAR^−/− BMMs; FIG. 10a
# UGT1A6 = test system: UGT1A6; parameters: species or system mice; details: mouse, in vivo
# [1] = mouse, in vivo
substance,measurement,setting,value
polyinosinic:polycytidylic acid [polyI:C],RXRα mRNA in liver,RXRα,potent downregulation of RXRα mRNA in an IRF3 dependent manner
same,"effect on induction of CYP24 mRNA by 1,25(OH)2D3",CYP24,blunted
same,ZF5 mRNA levels,ZF5,unaffected
same,LG268 induction of CRBPII,CRBPII,repressed by polyI:C in IFNAR^−/− BMMs but not IRF3^−/− BMMs
same,IRF3 dependence of UGT1A6 repression,UGT1A6,dependent on IRF3
same,effect on ASA or PCN induction of UGT1A6 mRNA,UGT1A6,diminished
same,liver damage,[1],strongly induced liver damage
